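Cultured in 96-well plates, cells were exposed to test compound for 48 hours across five concentrations. TGI marks complete inhibition of growth.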
Columns and labels:
Test in all cases: NCI anticancer screen, dose series, 48 h
[1] = system: 786-0 renal
[2] = system: A549 NSCLC
[3] = system: BT-549 breast
[4] = system: CAKI-1 renal
[5] = system: CCRF-CEM leukemia
[6] = system: COLO 205 colon
[7] = system: DU-145 prostate
[8] = system: EKVX NSCLC
[9] = system: HCC-2998 colon
[10] = system: HCT-116 colon
[11] = system: HCT-15 colon
[12] = system: HOP-62 NSCLC
[13] = system: HS 578T breast
[14] = system: HT29 colon
[15] = system: IGROV1 ovarian
[16] = system: K-562 leukemia
[17] = system: KM12 colon
[18] = system: LOX IMVI melanoma
[19] = system: M14 melanoma
[20] = system: MALME-3M melanoma
[21] = system: MCF7 breast
[22] = system: MDA-MB-231 breast
[23] = system: MDA-MB-435
[24] = system: MDA-N
[25] = system: MOLT-4 leukemia
[26] = system: NCI-H226 lung
[27] = system: NCI-H23 lung
[28] = system: NCI-H522 lung
[29] = system: NCI/ADR-RES ovarian
[30] = system: OVCAR-3 ovarian
[31] = system: OVCAR-4 ovarian
[32] = system: OVCAR-5 ovarian
[33] = system: OVCAR-8 ovarian
[34] = system: PC-3 prostate
[35] = system: RPMI-8226 leukemia
[36] = system: RXF 393 renal
[37] = system: SF-268 CNS
[38] = system: SF-295 CNS
[39] = system: SF-539 CNS
[40] = system: SK-MEL-2 melanoma
[41] = system: SK-MEL-28 melanoma
[42] = system: SK-MEL-5 melanoma
[43] = system: SK-OV-3 ovarian
[44] = system: SN12C renal
[45] = system: SNB-19 CNS
[46] = system: SNB-75 CNS
[47] = system: SW-620 colon
[48] = system: T-47D breast
[49] = system: TK-10 renal
[50] = system: U251 CNS
[51] = system: UACC-62 melanoma
[52] = system: UO-31 renal
[53] = system: A498 renal
[54] = system: ACHN renal
[55] = system: HL-60(TB) leukemia
[56] = system: HOP-92 NSCLC
[57] = system: NCI-H460 lung
[58] = system: SR leukemia
[59] = system: UACC-257 melanoma

## Cc1ccc(/C=C2\NC(=S)NC2=O)cc1
[1]
  TGI: > 100 µM
[2]
  TGI: > 100 µM
[3]
  TGI: > 100 µM
[4]
  TGI: > 100 µM
[5]
  TGI: > 100 µM
[6]
  TGI: > 100 µM
[7]
  TGI: > 100 µM
[8]
  TGI: > 100 µM
[9]
  TGI: > 100 µM
[10]
  TGI: > 100 µM
[11]
  TGI: > 100 µM
[12]
  TGI: > 100 µM
[13]
  TGI: > 100 µM
[14]
  TGI: > 100 µM
[15]
  TGI: > 100 µM
[16]
  TGI: > 100 µM
[17]
  TGI: > 100 µM
[18]
  TGI: > 100 µM
[19]
  TGI: > 100 µM
[20]
  TGI: > 100 µM
[21]
  TGI: > 100 µM
[22]
  TGI: > 100 µM
[23]
  TGI: > 100 µM
[24]
  TGI: > 100 µM
[25]
  TGI: > 100 µM
[26]
  TGI: > 100 µM
[27]
  TGI: > 100 µM
[28]
  TGI: > 100 µM
[29]
  TGI: > 100 µM
[30]
  TGI: > 100 µM
[31]
  TGI: > 100 µM
[32]
  TGI: > 100 µM
[33]
  TGI: > 100 µM
[34]
  TGI: > 100 µM
[35]
  TGI: > 100 µM
[36]
  TGI: > 100 µM
[37]
  TGI: > 100 µM
[38]
  TGI: > 100 µM
[39]
  TGI: > 100 µM
[40]
  TGI: > 100 µM
[41]
  TGI: > 100 µM
[42]
  TGI: > 100 µM
[43]
  TGI: > 100 µM
[44]
  TGI: > 100 µM
[45]
  TGI: > 100 µM
[46]
  TGI: > 100 µM
[47]
  TGI: > 100 µM
[48]
  TGI: > 100 µM
[49]
  TGI: > 100 µM
[50]
  TGI: > 100 µM
[51]
  TGI: > 100 µM
[52]
  TGI: > 100 µM

## COC1(C2c3ccccc3CCN2C(=O)OC(C)(C)C)C(=O)C(c2ccccc2)=C1N(C)C (stereo not given)
[1]
  TGI: 93.3 µM
[53]
  TGI: 62.6 µM
[2]
  TGI: > 100 µM
[54]
  TGI: > 100 µM
[3]
  TGI: 75 µM
[4]
  TGI: > 100 µM
[5]
  TGI: > 100 µM
[6]
  TGI: 35.4 µM
[7]
  TGI: > 100 µM
[8]
  TGI: > 100 µM
[10]
  TGI: 96.9 µM
[11]
  TGI: > 100 µM
[55]
  TGI: 79.8 µM
[12]
  TGI: > 100 µM
[56]
  TGI: 86.2 µM
[13]
  TGI: 96.9 µM
[14]
  TGI: 43.9 µM
[17]
  TGI: > 100 µM
[19]
  TGI: > 100 µM
[20]
  TGI: 93.8 µM
[21]
  TGI: > 100 µM
[23]
  TGI: 61.6 µM
[24]
  TGI: 64 µM
[25]
  TGI: > 100 µM
[26]
  TGI: 59.6 µM
[27]
  TGI: 71.6 µM
[57]
  TGI: > 100 µM
[28]
  TGI: 56.8 µM
[29]
  TGI: 57.9 µM
[30]
  TGI: 70.6 µM
[31]
  TGI: > 100 µM
[32]
  TGI: > 100 µM
[33]
  TGI: > 100 µM
[34]
  TGI: 82.4 µM
[36]
  TGI: > 100 µM
[37]
  TGI: > 100 µM
[38]
  TGI: > 100 µM
[39]
  TGI: 47.6 µM
[40]
  TGI: 66.5 µM
[41]
  TGI: > 100 µM
[42]
  TGI: 58.9 µM
[43]
  TGI: > 100 µM
[44]
  TGI: 39.9 µM
[45]
  TGI: > 100 µM
[46]
  TGI: > 100 µM
[58]
  TGI: > 100 µM
[47]
  TGI: > 100 µM
[48]
  TGI: > 100 µM
[49]
  TGI: > 100 µM
[50]
  TGI: > 100 µM
[59]
  TGI: > 100 µM
[51]
  TGI: > 100 µM
[52]
  TGI: 64.4 µM

## CCOC(=O)NC(Nc1cc(Cl)ccc1OC)(C(F)(F)F)C(F)(F)F
[53]
  TGI: > 100 µM
[2]
  TGI: > 100 µM
[54]
  TGI: > 100 µM
[3]
  TGI: > 100 µM
[4]
  TGI: > 100 µM
[5]
  TGI: > 100 µM
[7]
  TGI: > 100 µM
[8]
  TGI: > 100 µM
[9]
  TGI: > 100 µM
[10]
  TGI: > 100 µM
[11]
  TGI: > 100 µM
[55]
  TGI: > 100 µM
[12]
  TGI: > 100 µM
[56]
  TGI: > 100 µM
[13]
  TGI: > 100 µM
[14]
  TGI: > 100 µM
[15]
  TGI: > 100 µM
[16]
  TGI: > 100 µM
[17]
  TGI: > 100 µM
[18]
  TGI: > 100 µM
[19]
  TGI: > 100 µM
[20]
  TGI: > 100 µM
[21]
  TGI: > 100 µM
[22]
  TGI: > 100 µM
[23]
  TGI: > 100 µM
[24]
  TGI: > 100 µM
[25]
  TGI: > 100 µM
[26]
  TGI: > 100 µM
[27]
  TGI: > 100 µM
[57]
  TGI: > 100 µM
[28]
  TGI: > 100 µM
[30]
  TGI: > 100 µM
[32]
  TGI: > 100 µM
[35]
  TGI: > 100 µM
[36]
  TGI: > 100 µM
[37]
  TGI: > 100 µM
[39]
  TGI: > 100 µM
[40]
  TGI: > 100 µM
[41]
  TGI: > 100 µM
[42]
  TGI: > 100 µM
[43]
  TGI: > 100 µM
[44]
  TGI: > 100 µM
[45]
  TGI: > 100 µM
[46]
  TGI: > 100 µM
[58]
  TGI: > 100 µM
[47]
  TGI: > 100 µM
[48]
  TGI: > 100 µM
[49]
  TGI: > 100 µM
[50]
  TGI: > 100 µM
[59]
  TGI: > 100 µM
[51]
  TGI: > 100 µM
[52]
  TGI: > 100 µM

## O=C1NC(Nc2ccccc2)=N/C1=C\c1c(Cl)cccc1Cl
[1]
  TGI: 29.6 µM
[53]
  TGI: > 100 µM
[2]
  TGI: 52.1 µM
[54]
  TGI: > 100 µM
[3]
  TGI: > 100 µM
[4]
  TGI: > 100 µM
[5]
  TGI: 54.1 µM
[6]
  TGI: > 100 µM
[7]
  TGI: 76.3 µM
[8]
  TGI: 47.3 µM
[9]
  TGI: 58.5 µM
[10]
  TGI: > 100 µM
[11]
  TGI: > 100 µM
[55]
  TGI: > 100 µM
[12]
  TGI: > 100 µM
[56]
  TGI: 39.9 µM
[13]
  TGI: 95 µM
[14]
  TGI: > 100 µM
[15]
  TGI: 62.4 µM
[16]
  TGI: > 100 µM
[17]
  TGI: > 100 µM
[18]
  TGI: > 100 µM
[19]
  TGI: 83.5 µM
[20]
  TGI: 56.5 µM
[21]
  TGI: 56 µM
[23]
  TGI: > 100 µM
[24]
  TGI: 60.9 µM
[25]
  TGI: 64.1 µM
[26]
  TGI: 41.6 µM
[27]
  TGI: > 100 µM
[57]
  TGI: > 100 µM
[28]
  TGI: > 100 µM
[29]
  TGI: > 100 µM
[30]
  TGI: > 100 µM
[31]
  TGI: 25.5 µM
[32]
  TGI: > 100 µM
[33]
  TGI: 65.1 µM
[34]
  TGI: 39.6 µM
[35]
  TGI: > 100 µM
[36]
  TGI: 45.3 µM
[37]
  TGI: > 100 µM
[38]
  TGI: > 100 µM
[39]
  TGI: 53.2 µM
[40]
  TGI: 49 µM
[41]
  TGI: > 100 µM
[42]
  TGI: 37.6 µM
[43]
  TGI: 49.7 µM
[44]
  TGI: 46.6 µM
[45]
  TGI: > 100 µM
[46]
  TGI: 42.3 µM
[58]
  TGI: > 100 µM
[47]
  TGI: > 100 µM
[48]
  TGI: > 100 µM
[49]
  TGI: 47.2 µM
[50]
  TGI: 37.6 µM
[59]
  TGI: 78.1 µM
[51]
  TGI: > 100 µM
[52]
  TGI: 18.4 µM
